For orientation: Kd means the concentration at which binding is half-saturated. Read a low Kd as tighter binding.

In this assay the target is T1, Inositol-pentakisphosphate 2-kinase (Mouse-ear cress, UniProt Q93YN9).
T1 sequence (Q93YN9 whole entry): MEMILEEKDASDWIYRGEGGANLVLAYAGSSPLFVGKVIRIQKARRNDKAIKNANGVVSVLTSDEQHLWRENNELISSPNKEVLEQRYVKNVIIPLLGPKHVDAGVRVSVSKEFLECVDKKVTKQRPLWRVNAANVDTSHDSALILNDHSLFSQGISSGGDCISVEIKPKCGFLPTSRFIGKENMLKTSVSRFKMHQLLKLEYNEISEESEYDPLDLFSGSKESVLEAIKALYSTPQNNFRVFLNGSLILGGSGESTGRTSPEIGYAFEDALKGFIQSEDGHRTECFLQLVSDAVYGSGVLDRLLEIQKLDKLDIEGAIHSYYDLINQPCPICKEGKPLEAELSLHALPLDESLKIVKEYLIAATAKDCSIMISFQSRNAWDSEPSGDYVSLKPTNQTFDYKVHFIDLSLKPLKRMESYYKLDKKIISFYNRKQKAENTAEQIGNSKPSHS
Nature of the assay: Isothermal Titration Calorimetry (ITC). The settings on record: pH 7.5; 25 °C. As for the experimental part:
Experiments were performed on a MicroCal iTC200 titration calorimeter (GE Healthcare). Wild-type IPK1 was purified and dialyzed into ITC buffer containing 50 mM HEPES (pH 7.5), 6 mM MgCl2, 150 mM NaCl, and 1 mM tris(2-carboxyethyl)phosphine (pH 7.0). After protein dialysis was complete, dialysis buffer was used to dissolve the ligands, IP, and AMP-PNP (Jena Bioscience). Titration experiments were performed at 25 °C with 100 uM IPK1 and1mM AMP-PNP in the cell and 1-2 mM IP in the syringe to ensure a final IP:IPK1 molar ratio of at least 2:1. Titration experiments were performed at least twice for each IP, and one set was chosen to represent data.
A general note: In ITC the heat of successive injections is recorded.

With `O=P(O)(O)O[C@H]1[C@H](OP(=O)(O)O)[C@@H](OP(=O)(O)O)[C@@H](O)[C@@H](O)[C@@H]1OP(=O)(O)O` [3,4,5,6-Inositol tetrakisphosphate (3,4,5,6-IP4)], the Kd turned out to be 7.52 µM. In other words, the single-digit micromolar range.

In the case of `O=P(O)(O)O[C@H]1[C@H](O)[C@@H](OP(=O)(O)O)[C@H](OP(=O)(O)O)[C@@H](OP(=O)(O)O)[C@H]1O` [1,3,4,5-Inositol tetrakisphosphate (1,3,4,5-IP4)], binding was put at a Kd of 18.2 µM.

`O=P(O)(O)O[C@@H]1[C@@H](O)[C@H](OP(=O)(O)O)[C@@H](OP(=O)(O)O)[C@@H](O)[C@H]1OP(=O)(O)O` [1,3,4,6-Inositol tetrakisphosphate (1,3,4,6-IP4)]: the Kd is 26.9 µM.

For the molecule `O=P(O)(O)O[C@@H]1[C@@H](OP(=O)(O)O)[C@H](OP(=O)(O)O)[C@@H](O)[C@@H](O)[C@H]1OP(=O)(O)O` [1,4,5,6-Inositol tetrakisphosphate (1,4,5,6-IP4)], binding was put at a Kd of 8.2 µM.

With `O=P(O)(O)O[C@@H]1[C@@H](OP(=O)(O)O)[C@H](OP(=O)(O)O)[C@H](O)[C@H](OP(=O)(O)O)[C@H]1OP(=O)(O)O` [Inositol 1,3,4,5,6-pentakisphosphate (IP5)], the Kd was found to be 0.6 µM.

For the origin of these results see BindingDB's records for doi:10.1074/jbc.M113.487777 (McGill University, 2013).
